# In patent US11773057B2, “Naphthalenesulfonamide compound, preparation method, and application” (CHINA PHARMACEUTICAL UNIVERSITY, priority 2019, dated 2023):
# pIC50: −log10 of the molar value.
# Biological target: T1, Keap1-Nrf2 PPI (Keap1 kelch domain protein, FITC labeled Nrf2 9 peptide) (Homo sapiens, UniProt Q14145)
# T1 construct: 10 μL 12 nm Keap1 kelch domain protein
# Experiment: Fluorescence polarization based Keap1-Nrf2 PPI competitive inhibition experiment (FP experiment)
# Assay type: binding
# Settings: FP experiment; general formula I / II compounds
# Experimental: 1. Keap1-Nrf2 PPI Competitive Inhibition Test Based on Fluorescence Polarization (FP Experiment)
# The 384-well blackboard model 3676 produced by Corning is used in FP experiment, with a total volume of reaction of 40 μL. 20 μL compound, 10 μL 4 nm FITC labeled Nrf2 9 peptide, 10 μL 12 nm Keap1 kelch domain protein are added to the well in order. 20 μL 200 nM DDO-1002, 10 μL 4 nM of the FITC-labeled Nrf2 9 peptide, 10 μL 12 nM of Keap1 Ketch domain protein are used in the positive control; 20 μL HEPES buffer, 10 μL 4 nM of the FITC-labeled Nrf2 9 peptide, 10 μL, 12 nM of Keap1 Kelch domain protein are used in the negative control; 10 μL 4 nM of the FITC-labeled Nrf2 9 peptide, 30 μL of HEPES buffer are used in the blank control. After addition is complete, they are incubated for 30 min at room temperature. The detection instrument is a SpectraMax Multi-Mode Microplate Reader (Molecular Devices), the excitation light wavelength selected is 485 nm, the emission light wavelength is 545 nm, and the fluorescence intensity in the horizontal and vertical directions is detected to calculate the polarization value. The inhibition rate is calculated as: inhibition %=[…]/(Pmax−Pmin) wherein Pobs is the polarization value of the compound well, Pmax is the polarization value of the negative control well, and Pmin is the polarization value of the blank well. Data treatment is performed using GraphPad Prism, and IC50 of the compound is calculated using a concentration-inhibition rate curve. The IC50 values for each compound are as previously described.
# T1 sequence (Q14145 321-609 limits assumed): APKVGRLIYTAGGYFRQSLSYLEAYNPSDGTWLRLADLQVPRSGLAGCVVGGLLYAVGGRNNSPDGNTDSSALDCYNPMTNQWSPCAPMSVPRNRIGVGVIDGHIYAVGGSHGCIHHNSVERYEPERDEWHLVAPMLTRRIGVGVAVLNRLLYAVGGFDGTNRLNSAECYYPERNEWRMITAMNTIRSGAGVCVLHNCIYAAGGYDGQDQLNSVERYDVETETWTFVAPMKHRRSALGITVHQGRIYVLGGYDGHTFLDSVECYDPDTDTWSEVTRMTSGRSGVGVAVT
row,SMILES,pIC50
1,"COc1ccc(S(=O)(=O)N(CC(=O)O)c2ccc(N(Cc3cccc(F)c3)[C@@H](C)CC(=O)O)c3ccccc23)cc1 [DDO-1177, (S)-3-((4-((N-(carboxymethyl)-4-methoxyphenyl)sulfonamido)naphthalen-1-yl) (3-fluorobenzyl)amino) butanoic acid]",6.74
2,"COc1ccc(S(=O)(=O)N(CC(=O)O)c2ccc(N(Cc3ccc(F)cc3)[C@@H](C)CC(=O)O)c3ccccc23)cc1 [DDO-1167, (S)-3-((4-((N-(carboxymethyl)-4-methoxyphenyl)sulfonamido)naphthalen-1-yl) (4-fluorobenzyl)amino) butanoic acid]",6.75
3,"COc1ccc(S(=O)(=O)Nc2ccc(N(Cc3cccc(Cl)c3)[C@@H](C)CC(=O)O)c3ccccc23)cc1 [DDO-1172, (S)-3-((3-chlorobenzyl) (4-((4-methoxyphenyl)sulfonamido)naphthalen-1-yl)amino) butanoic acid]",5.42
4,COc1ccc(S(=O)(=O)N(CC(=O)O)c2ccc(N(Cc3ccccc3C)[C@@H](C)CC(=O)O)c3ccccc23)cc1 [DDO-1171],6.95
5,"COc1ccc(S(=O)(=O)Nc2ccc(N(Cc3ccc(F)cc3)[C@@H](C)CC(=O)O)c3ccccc23)cc1 [DDO-1166, (S)-3-((4-fluorobenzyl) (4-((4-methoxyphenyl)sulfonamido)naphthalen-1-yl)amino) butanoic acid]",5.67
6,"COc1ccc(S(=O)(=O)N(CC(=O)O)c2ccc(N(Cc3cccc(Cl)c3)[C@@H](C)CC(=O)O)c3ccccc23)cc1 [DDO-1173, (S)-3-((4-((N-(Carboxymethyl)-4-methoxyphenyl)sulfonamido)naphthalen-1-yl) (3-chlorobenzyl)amino) butanoic acid]",6.74
7,COc1ccc(S(=O)(=O)N(CC(=O)O)c2ccc(N(Cc3cccc(C)c3)[C@@H](C)CC(=O)O)c3ccccc23)cc1 [DDO-1169],6.69
8,"COc1ccc(S(=O)(=O)Nc2ccc(N(Cc3ccccc3C)[C@@H](C)CC(=O)O)c3ccccc23)cc1 [DDO-1170, (S)-3-((4-((4-methoxyphenyl)sulfonamido)naphthalen-1-yl) (2-methylbenzyl)amino) butanoic acid]",5.96
9,"COc1ccc(S(=O)(=O)Nc2ccc(N(Cc3ccccc3Cl)[C@@H](C)CC(=O)O)c3ccccc23)cc1 [DDO-1174, (S)-3-((2-chlorobenzyl) (4-((4-methoxyphenyl)sulfonamido)naphthalen-1-yl)amino) butanoic acid]",5.80

# Same assay, conditions: FP experiment; general formula III compounds; unit inferred
row,SMILES,pIC50
1,"C#CCN(c1ccc(NS(=O)(=O)c2ccc(Cl)cc2)c2ccccc12)[C@@H](C)CC(=O)O [DDO-1192, (S)-3-((4-((4-chlorophenyl)sulfonamido)naphthalen-1-yl)(prop-2-yn-1-yl)amino) butanoic acid]",5.77
2,"C#CCN(c1ccc(NS(=O)(=O)c2ccc(C)cc2C)c2ccccc12)[C@@H](C)CC(=O)O [DDO-1204, (S)-3-((4-((2,4-dimethylphenyl)sulfonamido)naphthalen-1-yl) (prop-2-yn-1-yl)amino) butanoic acid]",7.03
3,"C#CCN(c1ccc(NS(=O)(=O)c2cccc(OC)c2)c2ccccc12)[C@@H](C)CC(=O)O [DDO-1200, (S)-3-((4-((3-methoxyphenyl)sulfonamido)naphthalen-1-yl)(prop-2-yn-1-yl)amino) butanoic acid]",6.62
4,"C#CCN(c1ccc(NS(=O)(=O)c2ccc(F)cc2)c2ccccc12)[C@@H](C)CC(=O)O [DDO-1190, (S)-3-((4-((4-fluorophenyl)sulfonamido)naphthalen-1-yl)(prop-2-yn-1-yl)amino) butanoic acid]",5.40

# Same assay, conditions: FP experiment; general formula IV compounds
row,SMILES,pIC50
1,C#CCN(c1ccc(N(CC(=O)O)S(=O)(=O)c2cccc(OC)c2)c2ccccc12)[C@@H](C)CC(=O)O [DDO-1201],6.89
2,"C#CCN(c1ccc(N(CC(=O)O)S(=O)(=O)c2c(C)c(C)cc(C)c2C)c2ccccc12)[C@@H](C)CC(=O)O [DDO-1209, (S)-3-((4-((N-(Carboxymethyl)-2,3,5,6-tetramethylphenyl)sulfonamido)naphthalen-1-yl)(prop-2-yn-1-yl)amino) butanoic acid]",6.82
3,"C#CCN(c1ccc(N(CC(=O)O)S(=O)(=O)c2ccc(C(C)C)cc2)c2ccccc12)[C@@H](C)CC(=O)O [DDO-1197, (S)-3-((4-((N-(carboxymethyl)-4-isopropylphenyl)sulfonamido)naphthalen-1-yl)(prop-2-yn-1-yl)amino) butanoic acid]",7.10
4,"C#CCN(c1ccc(N(CC(=O)O)S(=O)(=O)c2c(C)cc(C)cc2C)c2ccccc12)[C@@H](C)CC(=O)O [DDO-1207, (S)-3-((4-((N-(Carboxymethyl)-2,4,6-trimethylphenyl)sulfonamidyl)naphthalen-1-yl)(prop-2-yn-1-yl)amino) butanoic acid]",7.82
5,C#CCN(c1ccc(N(CC(=O)O)S(=O)(=O)c2ccccc2OC)c2ccccc12)[C@@H](C)CC(=O)O [DDO-1199],6.54

# Same assay, conditions: FP experiment; general formula V / VI compounds
row,SMILES,pIC50
1,C#CCN(c1ccc(NS(=O)(=O)c2c(C)cc(OC)cc2C)c2ccccc12)[C@@H](C)CC(=O)O [DDO-1220],7.89
2,"C#CCN(c1ccc(N(CC(=O)O)S(=O)(=O)c2ccc(OC)c(OC)c2)c2ccccc12)[C@@H](C)CC(=O)O [DDO-1211, (S)-3-((4-((N-(Carboxymethyl)-3,4-dimethoxyphenyl)sulfonamido)naphthalen-1-yl)(prop-2-yn-1-yl)amino) butanoic acid]",7.23
3,C#CCN(c1ccc(N(CC(=O)O)S(=O)(=O)c2ccc(OC)c(Cl)c2)c2ccccc12)[C@@H](C)CC(=O)O [DDO-1215],7.40
4,C#CCN(c1ccc(NS(=O)(=O)c2ccc(OC)c(Cl)c2)c2ccccc12)[C@@H](C)CC(=O)O [DDO-1214],7.12
5,C#CCN(c1ccc(N(CC(=O)O)S(=O)(=O)c2c(C)cc(OC)cc2C)c2ccccc12)[C@@H](C)CC(=O)O [DDO-1221],8.24
6,"C#CCN(c1ccc(NS(=O)(=O)c2ccc(OC)c(F)c2)c2ccccc12)[C@@H](C)CC(=O)O [DDO-1212, (S)-3-((4-((3-fluoro-4-methoxyphenyl)sulfonamido)naphthalen-1-yl) (prop-2-yn-1-yl)amino) butanoic acid]",6.56
7,"C#CCN(c1ccc(NS(=O)(=O)c2ccc(OC)c(OC)c2)c2ccccc12)[C@@H](C)CC(=O)O [DDO-1210, (S)-3-((4-((3,4-dimethoxyphenyl)sulfonamido)naphthalen-1-yl) (prop-2-yn-1-yl)amino) butanoic acid]",7.14

# Same assay, conditions: in words
row,SMILES,target activity in the FP assay
1,C#CCN(c1ccc(N(CC(=O)O)S(=O)(=O)c2c(C)cc(OC)cc2C)c2ccccc12)[C@@H](C)CC(=O)O [DDO-1221],optimal target activity

# System: HepG2-ARE-C8 cells
# Experiment: ARE luciferase reporter gene experiment
# Assay type: cell-based
# Settings: compound acts 12 h, ratio to DMSO group, FIG. 1, in words
# Experimental: 2. ARE Luciferase Reporter Gene Experiment
# HepG2-ARE-C8 cells in log growth phase (these cells are given by A. N. Tony Kong of Rutgers University) are digested with 0.1% pancreatin to prepare a cell suspension, the cell suspension is added to a 96-well microtiter plate at a cell concentration of 4×10^5/mL, added 100 μL per well, and after overnight culture, a DMSO group serves as a negative control, t-BHQ serves as a positive control, and a cell culture lysis reagent serves as a background value. The compound is allowed to act for 12 h, three replicate wells were provided, the growth medium is carefully pipetted from the cells to be examined, 100 μL of pre-cooled. […] 100 μL luciferase detection reagent is added to each well and read immediately. […] Typical delay time is 2 seconds, typical reading time is 10 seconds, and the last measured data is divided from the DMSO group. […]
# By a fluorescence polarization based Keap1-Nrf2 PPI competitive inhibition experiment we have shown that on the target level, some compounds (compound numbers see FIG. 1) are able to efficiently compete for binding to Keap1 and thereby activating Nrf2. […] When luciferin is present in a substrate, the […], and the activation capability of a compound on Nrf2 is indirectly reflected by means of fluorescence intensity. […]
row,SMILES,"ARE luciferase reporter gene activity (fold induction), cell activity"
1,C#CCN(c1ccc(NS(=O)(=O)c2c(C)cc(OC)cc2C)c2ccccc12)[C@@H](C)CC(=O)O [DDO-1220],has the optimal cell activity
2,C#CCN(c1ccc(N(CC(=O)O)S(=O)(=O)c2c(C)cc(OC)cc2C)c2ccccc12)[C@@H](C)CC(=O)O [DDO-1221],does not have the optimal cell activity
